Source: patent US8222260B2, “Substituted 6-anilinopurine derivatives as inhibitors of cytokinin oxidase/dehydrogenase and preparations containing these derivatives” (Univerzita Palackego V Olomouci, priority 2007, dated 2012)
Read-outs that look alike come from different tables or passages of the source. One block for each compound: values may come before it.

Tests used:
[1] = system: T-lymphoblastic leukemia cell line CEM; assay: Calcein AM cytotoxicity assay; type: cell-based, human; details: 72 hours
Description: (§1) Absence of toxic effects against mammalian (especially human) cell lines in a wide concentration range is one of the requirements on compounds intended for use in agriculture and medicine. Because toxic compounds negatively influence metabolic processes in cells, many standard cytotoxicity assays are based on measurement of metabolisation rate of various artificial substrates. Resulting product is then quantified e.g. by means of spectrometry. The assays can be easily modified for use in 96-well plates. For evaluation of cytotoxic effect of compounds of this invention, a microtiter assay based on quantification of metabolisation of Calcein AM was used. The assay is widely used in drug screening programs and in chemosensitivity testing. In live cells, Calcein AM is enzymatically hydrolysed and accumulation of resulting calcein is manifested by green fluorescence.
(§2) Mouse cell lines B16-F10 (melanoma) and NIH-3T3 (fibroblasts) were used as well. The cells were maintained in Nunc/Corning 80 cm^2 plastic tissue culture flasks and cultured in cell culture medium (DMEM with 5 g/l glucose, 2 mM glutamine, 100 U/ml penicillin, 100 μg/ml streptomycin, 10% fetal calf serum and sodium bicarbonate).
(§3) The cell suspensions were prepared and diluted according to the particular cell type and the expected target cell density (2.500-30.000 cells per well based on cell growth characteristics) and pippetted (80 μl) into 96-well plates. Inoculates were allowed a pre-incubation period of 24 hours at 37° C. and 5% CO2 for stabilisation. Tested compound was added in total volume of 20 μl of water at time zero. Usually, test compound was evaluated at six 3-fold dilutions. […] All drug concentrations were tested in triplicates. Incubations of cells with the test compounds lasted for 72 hours at 37° C., in 5% CO2 atmosphere and 100% humidity. At the end of incubation period Calcein AM in PBS was added into final concentration of 1 μg/ml. After another 1 hour of incubation fluorescence (FD) was measured with the Labsystem FIA Reader Fluoroscan Ascent (UK). Growth inhibition (GI) was estimated using the following equitation: GI=(mean FDdrug exposed wells−mean FDblank)/(mean FDcontrol wells−mean FDblank)×100%.

[2] = system: breast carcinoma cell line MCF-7; assay: Calcein AM cytotoxicity assay; type: cell-based, human
Description: as §1, §2, §3

[3] = system: promyelocytic leukemia cell line HL-60; assay: Calcein AM cytotoxicity assay; type: cell-based, human; details: read-out: GI50 HL60
Description: as §1, §2, §3

CRE1/AHK4 = CRE1/AHK4 (Arabidopsis thaliana, UniProt Q9C5U0); assay: Activation of cytokinin receptors (E. coli KMI001 beta-galactosidase reporter); type: cell-based; details: 17 h incubation; n.a. means no activation
CRE1/AHK4, sequence (Q9C5U0 whole entry): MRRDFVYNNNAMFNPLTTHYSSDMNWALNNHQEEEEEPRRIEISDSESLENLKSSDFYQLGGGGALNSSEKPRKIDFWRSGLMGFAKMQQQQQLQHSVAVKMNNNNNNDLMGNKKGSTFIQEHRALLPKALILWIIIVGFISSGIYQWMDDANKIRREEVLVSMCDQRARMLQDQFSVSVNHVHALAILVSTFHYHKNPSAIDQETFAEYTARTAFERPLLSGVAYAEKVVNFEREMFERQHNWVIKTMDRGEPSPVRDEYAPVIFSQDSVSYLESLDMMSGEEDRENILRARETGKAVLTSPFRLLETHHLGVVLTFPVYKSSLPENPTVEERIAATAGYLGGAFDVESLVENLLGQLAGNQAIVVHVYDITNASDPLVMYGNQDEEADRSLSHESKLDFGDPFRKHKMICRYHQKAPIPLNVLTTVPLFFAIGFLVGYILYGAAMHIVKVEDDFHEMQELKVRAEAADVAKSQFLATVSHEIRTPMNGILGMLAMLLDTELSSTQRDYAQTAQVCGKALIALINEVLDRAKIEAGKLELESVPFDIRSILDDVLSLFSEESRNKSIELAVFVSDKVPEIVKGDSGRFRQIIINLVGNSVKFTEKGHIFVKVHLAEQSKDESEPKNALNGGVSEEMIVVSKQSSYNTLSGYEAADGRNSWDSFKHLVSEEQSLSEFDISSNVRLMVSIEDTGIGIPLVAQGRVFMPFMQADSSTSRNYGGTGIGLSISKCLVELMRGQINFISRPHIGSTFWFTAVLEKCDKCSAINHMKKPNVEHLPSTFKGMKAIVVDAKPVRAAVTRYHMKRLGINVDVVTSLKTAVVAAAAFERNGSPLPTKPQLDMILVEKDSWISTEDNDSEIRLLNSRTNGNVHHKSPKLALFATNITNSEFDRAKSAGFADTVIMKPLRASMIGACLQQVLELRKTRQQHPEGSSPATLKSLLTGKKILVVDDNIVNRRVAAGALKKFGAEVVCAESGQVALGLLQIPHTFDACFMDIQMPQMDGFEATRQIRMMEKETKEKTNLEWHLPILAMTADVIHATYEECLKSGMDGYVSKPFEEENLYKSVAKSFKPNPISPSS
Outline: (§4)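 E. coli KMI001 carrying the receptor plasmid was grown in M9 + 0.1% casamino acids at 25 °C, diluted 1:600 and treated with compound (stock solutions 10^-7–5×10^-5 M). Supernatant β-galactosidase was read by 4-methylumbelliferyl galactoside hydrolysis (1 h, 37 °C, Na2CO3 stop). EC50 came from dose-response curves, triplicate means.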

AHK3 = molecular target: T1, AHK3 (Arabidopsis thaliana, UniProt Q9C5U1); assay: as above; type: cell-based; details: 28 h incubation; n.a. means no activation
T1 sequence (Q9C5U1 1-1036): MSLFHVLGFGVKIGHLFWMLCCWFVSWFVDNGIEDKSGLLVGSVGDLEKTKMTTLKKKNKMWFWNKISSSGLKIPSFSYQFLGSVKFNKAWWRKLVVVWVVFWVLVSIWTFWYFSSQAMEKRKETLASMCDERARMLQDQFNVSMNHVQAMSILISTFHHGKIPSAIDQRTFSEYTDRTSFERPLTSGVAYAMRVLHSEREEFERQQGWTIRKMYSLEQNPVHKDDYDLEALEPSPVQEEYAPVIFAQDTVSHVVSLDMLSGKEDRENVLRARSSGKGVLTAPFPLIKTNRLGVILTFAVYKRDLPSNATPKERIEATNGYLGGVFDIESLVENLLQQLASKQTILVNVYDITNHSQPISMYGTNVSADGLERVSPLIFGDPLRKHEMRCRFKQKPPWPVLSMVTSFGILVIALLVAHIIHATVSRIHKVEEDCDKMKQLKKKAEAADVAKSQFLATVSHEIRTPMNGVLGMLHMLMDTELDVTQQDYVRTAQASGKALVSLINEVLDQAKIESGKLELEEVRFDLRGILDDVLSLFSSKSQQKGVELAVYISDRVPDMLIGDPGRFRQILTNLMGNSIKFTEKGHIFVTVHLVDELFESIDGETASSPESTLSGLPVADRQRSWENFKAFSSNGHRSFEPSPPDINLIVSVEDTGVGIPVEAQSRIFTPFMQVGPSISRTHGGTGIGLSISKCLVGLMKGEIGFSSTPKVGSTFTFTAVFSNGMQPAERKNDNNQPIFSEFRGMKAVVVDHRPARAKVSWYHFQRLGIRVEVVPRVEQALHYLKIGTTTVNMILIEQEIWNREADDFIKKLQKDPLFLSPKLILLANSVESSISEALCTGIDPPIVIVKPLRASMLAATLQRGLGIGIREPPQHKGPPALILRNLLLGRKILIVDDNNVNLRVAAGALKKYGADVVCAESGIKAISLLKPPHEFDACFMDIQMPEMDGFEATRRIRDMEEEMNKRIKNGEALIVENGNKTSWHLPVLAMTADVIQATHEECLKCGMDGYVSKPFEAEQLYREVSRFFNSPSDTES
Outline: as §4

NIH-3T3 (fibroblasts) = assay: Calcein AM cytotoxicity assay; type: cell-based, Mouse
Description: as §1, §2, §3

[4] = system: Rat C6 glioma (ATCC No. CCL107); assay: Anti-inflammatory activity: isoproterenol-induced cAMP synthesis (ELISA); type: cell-based; details: cAMP after 30 min, induced by (−)-isoproterenol; for IC50: Rattus norvegicus, C6 glioma, 0.5 h, read-out: I50
Experimental: Anti-inflammatory activity of several of the substituted 6-anilinopurine derivatives of this invention was determined; kinetin was also evaluated as a control. Rat C6 glioma (ATCC No. CCL107) was cultivated in monolayer in serum-free chemically defined medium containing Ham's F10/minimal essential medium (1:1 v/v), 2 mM L-glutamine, 1% (v/v) minimal essential medium vitamins (100×), 1% (v/v) minimal essential medium nonessential amino acids (100×), 100 U/ml penicillin, […], and 30 nM sodium selenite. Incubation was performed at 37° C. in a 100% humidified atmosphere. The assays were performed in the logarithmic growth phase at a density of 2.5×10^5 cells/cm^2. Intracellular cAMP synthesis was induced by addition of 5 mM (−)-isoproterenol; various amounts of test compounds were added at the same time as the (−)-isoproterenol. After 30 min incubation, the cellular amount of cAMP was determined using ELISA (cAMP-enzyme immunoassay kit from Amersham). The I50 values were determined from the dose-response curve in duplicate.

[5] = system: Amaranthus caudatus cotyledon/hypocotyl explants; assay: Amaranthus bioassay (betacyanin content); type: cell-based, Amaranthus caudatus var. atropurpurea; details: at the concentration with highest activity, relative to 10^−5 M kinetin
Outline: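 Etiolated A. caudatus cotyledon/hypocotyl explants (72 h seedlings, roots removed) incubated 48 h at 25 °C in darkness on medium with phosphate buffer pH 6.8, tyrosine and test compound. Betacyanin extracted in acetic acid, quantified as A537−A620.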

[6] = system: cytokinin-dependent tobacco callus Nicotiana tabacum L. cv. Wisconsin 38; assay: Tobacco callus biotest (plant cell division); type: cell-based; details: at the concentration with highest activity, relative to 10^−5 M kinetin
recombinant AtCKX2 = molecular target: T2, recombinant AtCKX2 (Arabidopsis thaliana, UniProt Q9FUJ3); assay: Inhibition of cytokinin oxidase/dehydrogenase activity (PMS/MTT microtitre plate assay); type: biochemical; details: 30 μM iP as substrate, pH 7.4, 37° C.; means of three replicates; read-out: IC50, inhibition of recombinant AtCKX2
T2 sequence (Q9FUJ3 23-501): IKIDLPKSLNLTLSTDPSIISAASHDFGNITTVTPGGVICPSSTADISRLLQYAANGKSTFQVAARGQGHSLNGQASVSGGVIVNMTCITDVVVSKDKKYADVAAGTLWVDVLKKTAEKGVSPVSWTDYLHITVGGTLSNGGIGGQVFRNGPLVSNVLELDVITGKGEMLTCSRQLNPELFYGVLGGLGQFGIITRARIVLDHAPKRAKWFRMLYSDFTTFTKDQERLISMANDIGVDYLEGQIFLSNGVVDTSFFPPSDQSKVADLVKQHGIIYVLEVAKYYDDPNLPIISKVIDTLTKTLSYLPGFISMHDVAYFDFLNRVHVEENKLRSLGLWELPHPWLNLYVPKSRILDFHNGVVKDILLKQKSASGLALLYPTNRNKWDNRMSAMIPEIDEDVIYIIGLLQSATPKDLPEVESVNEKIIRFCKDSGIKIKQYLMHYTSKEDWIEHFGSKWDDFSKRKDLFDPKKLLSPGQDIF
Experimental: IC50 determinations were done using the assay in microtitre plate. Each well contained 100 μL of PMS/MTT [phenazine methosulfate/3-(4,5-dimethylthiazol-2-yl)-2,5-diphenyltetrazolium bromide] reaction mixture (final concentrations: 0.1 M KH2PO4, pH 7.4, 1 mM MTT, 0.2 mM PMS) containing the tested compound (3×10^−7 M-3×10^−4 M) and 30 μM N^6-isopentenyladenine (iP) as a substrate. 100 μL of cell-free growth medium of S. cerevisiae strain 23344c ura^− harboring the plasmid pYES2-AtCKX2 was directly used as a source of AtCKX2. Plates were incubated in the dark for […] at 37° C. and the enzymatic reaction was stopped by 25 μL of 35% acetic acid. The absorbance at 578 nm was measured using spectrophotometer Tecan. Absorbance of the sample without iP was subtracted.
The IC50 value, the compound concentration that inhibits the enzyme activity to 50%, was calculated from the obtained dose response curves. The values shown in Table 9 are means of three replicates and the entire test was repeated at least twice.

[7] = system: CKX1 overproducing Arabidopsis seedlings; assay: CKX1 overproducing Arabidopsis seedlings grown in vitro on MS medium, phenotype reversion; type: in vivo; details: in vitro on MS medium containing 0.1 μM compound
[8] = system: osteosarcoma cell line HOS; assay: Calcein AM cytotoxicity assay; type: cell-based, human; details: Homo sapiens, 72 hours
Description: as §1
as §2, with “Following human cell lines were used for routine screening of the compounds: T-lymphoblastic leukemia cell line CEM, promyelocytic leukemia cell line HL-60, erytroid leukemia cell line K-562, breast carcinoma cell line MCF-7, osteosarcoma cell line HOS and melanoma cell line G-361. Mouse” for “Mouse”
(§5) The cell suspensions were prepared and diluted according to the particular cell type and the expected target cell density (2.500-30.000 cells per well based on cell growth characteristics) and pippetted (80 μl) into 96-well plates. Inoculates were allowed a pre-incubation period of 24 hours at 37° C. and 5% CO2 for stabilisation. Tested compound was added in total volume of 20 μl of water at time zero. Usually, test compound was evaluated at six 3-fold dilutions. In routine testing, the highest concentration tested was 166.6 μM. All drug concentrations were tested in triplicates. Incubations of cells with the test compounds lasted for 72 hours at 37° C., in 5% CO2 atmosphere and 100% humidity. At the end of incubation period Calcein AM in PBS was added into final concentration of 1 μg/ml. After another 1 hour of incubation fluorescence (FD) was measured with the Labsystem FIA Reader Fluoroscan Ascent (UK). Growth inhibition (GI) was estimated using the following equitation: GI=(mean FDdrug exposed wells−mean FDblank)/(mean FDcontrol wells−mean FDblank)×100%. The GI50 value, the drug concentration causing 50% reduction of Calcein AM conversion, was calculated from the obtained dose response curves.

[9] = system: erytroid leukemia cell line K-562; assay: Calcein AM cytotoxicity assay; type: cell-based, human; details: Homo sapiens, K562, 72 hours
Description: as §1
as §2, with “Following human cell lines were used for routine screening of the compounds: T-lymphoblastic leukemia cell line CEM, promyelocytic leukemia cell line HL-60, erytroid leukemia cell line K-562, breast carcinoma cell line MCF-7, osteosarcoma cell line HOS and melanoma cell line G-361. Mouse” for “Mouse”
as §5

SMILES: C/C(=C\CNc1ncnc2nc[nH]c12)CO [trans-zeatin, reference compound]
GI50 [1]: > 167 µM
GI50 ([2]; 72 hours, read-out: GI50 MCF7): > 167 µM
GI50 ([3]; 72 hours): > 167 µM
EC50 (CRE1/AHK4): 0.9 µM
EC50 (AHK3): 2.1 µM
GI50 (NIH-3T3 (fibroblasts); 72 hours): > 167 µM

EC50 (AHK3): 31.7 µM
IC50 [4]: 25 µM
SMILES: Oc1ccccc1Nc1nc(Cl)nc2nc[nH]c12 [Compound 8, 2-chloro-6-(2-hydroxyanilino)purine]
Effect (anti-inflammatory activity) [4]: Inhibition

EC50 (CRE1/AHK4): 39.8 µM
EC50 (AHK3): 27 µM
IC50 (recombinant AtCKX2): 27 µM
SMILES: Fc1nc(Nc2ccc(Cl)cc2)c2nc[nH]c2n1 [Compound 43]
Activity (%) [10^−5 mol · l^−1 K = 100%] [5]: 102.6%
Activity (%) [10^−5 mol · l^−1 K = 100%] [6]: 130%

SMILES: c1ccc(CNc2ncnc3nc[nH]c23)cc1 [benzylamino, 6-benzylaminopurine, reference compound]
GI50 ([1]; Homo sapiens): > 167 µM
GI50 ([3]; Homo sapiens, HL-60, 72 hours): > 167 µM
reversion of WT phenotype [7]: appeared only when the compound 12 was present
GI50 [8]: > 167 µM
GI50 (NIH-3T3 (fibroblasts); Mus musculus, NIH3T3, 72 hours): > 167 µM

IC50 [4]: 7 µM
SMILES: COc1cccc(CNc2nc(Cl)nc3nc[nH]c23)c1 [2-chloro-6-(3-methoxybenzylamino)purine]
Effect (anti-inflammatory activity) [4]: Inhibition

IC50 [4]: 11 µM
SMILES: COc1cc(CNc2nc(Cl)nc3nc[nH]c23)cc(OC)c1 [2-chloro-6-(3,5-dimethoxybenzylamino)purine]
Effect (anti-inflammatory activity) [4]: Inhibition

EC50 (CRE1/AHK4): > 50 µM
EC50 (AHK3): > 50 µM
SMILES: Nc1nc(Nc2ccc(O)cc2)c2nc[nH]c2n1 [Compound 73]
GI50 ([2]; Homo sapiens, MCF7, 72 hours): > 167 µM
GI50 [8]: > 167 µM
GI50 (NIH-3T3 (fibroblasts); Mus musculus, NIH3T3, 72 hours): > 167 µM

SMILES: Nc1ncnc2nc[nH]c12 [adenine, reference compound]
GI50 ([1]; Homo sapiens): > 167 µM
GI50 ([2]; Homo sapiens, MCF7, 72 hours): > 167 µM
GI50 ([3]; Homo sapiens, HL-60, 72 hours): > 167 µM
GI50 [9]: > 167 µM
GI50 (NIH-3T3 (fibroblasts); Mus musculus, NIH3T3, 72 hours): > 167 µM

EC50 (CRE1/AHK4): > 50 µM
EC50 (AHK3): 42.1 µM
IC50 (recombinant AtCKX2): 22.1 µM
SMILES: Fc1cccc(Nc2nc(F)nc3[nH]cnc23)c1 [Compound 45]
Activity (%) [10^−5 mol · l^−1 K = 100%] [5]: 105.1%
Activity (%) [10^−5 mol · l^−1 K = 100%] [6]: 127.9%
